In the test the target is T1, Human M4 (Homo sapiens, UniProt P08173).
T1 construct: expressed in transfected cells
T1 sequence (P08173 1-479): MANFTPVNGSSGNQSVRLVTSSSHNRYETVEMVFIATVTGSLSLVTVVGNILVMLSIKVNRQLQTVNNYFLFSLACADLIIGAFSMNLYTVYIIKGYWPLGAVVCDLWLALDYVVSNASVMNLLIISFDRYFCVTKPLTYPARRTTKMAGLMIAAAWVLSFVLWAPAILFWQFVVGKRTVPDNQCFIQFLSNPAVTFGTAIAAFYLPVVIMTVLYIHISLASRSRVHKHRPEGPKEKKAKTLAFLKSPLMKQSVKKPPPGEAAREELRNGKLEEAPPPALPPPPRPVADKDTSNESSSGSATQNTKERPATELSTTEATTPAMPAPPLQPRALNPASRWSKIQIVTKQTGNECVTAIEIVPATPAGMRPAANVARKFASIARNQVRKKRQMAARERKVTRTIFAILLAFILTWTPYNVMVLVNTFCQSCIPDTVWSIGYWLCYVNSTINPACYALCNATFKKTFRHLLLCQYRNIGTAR
As to the kind of experiment: mAChR M4 cell-based functional assay (calcium flux, PAM mode). The conditions noted are these: hM4-Gqi5 CHO-K1 cells; for Emax at 30 µM: CHO-K1, % ACh maximum at 30 μM; for EC50: concentration-dependent increase in the EC20 acetylcholine response. Here is the method: Human and rat M4 cDNAs, along with the chimeric G protein Gqi5, were transfected into Chinese hamster ovary (CHO-K1) cells purchased from the American Type Culture Collection using Lipofectamine2000. hM4-Gqi5 cells were grown in Ham's F-12 medium containing 10% heat-inactivated fetal bovine serum (FBS), 20 mM HEPES, 50 μg/mL G418 sulfate, and 500 μg/mL Hygromycin B. rM4-Gqi5 cells were grown in DMEM containing 10% heat-inactivated FBS, 20 mM HEPES, 400 μg/mL G418 sulfate, and 500 μg/mL Hygromycin B.
For high throughput measurement of agonist-evoked increases in intracellular calcium, CHO-K1 cells stably expressing muscarinic receptors were plated in growth medium lacking G418 and hygromycin at 15,000 cells/20 μL/well in Greiner 384-well black-walled, tissue culture (TC)-treated, clear-bottom plates (VWR). Cells were incubated overnight at 37° C. and 5% CO2. The next day, cells were washed using an ELX 405 (BioTek) with assay buffer; the final volume was then aspirated to 20 μL. Next, 20 μL of a 2.3 μM stock of Fluo-4/acetoxymethyl ester (Invitrogen, Carlsbad, CA), prepared as a 2.3 mM stock in DMSO and mixed in a 1:1 ratio with 10% (w/v) Pluronic F-127 and diluted in assay buffer, was added to the wells and the cell plates were incubated for 50 min at 37° C. and 5% CO2. Dye was removed by washing with the ELX 405 and the final volume was aspirated to 20 μL. Compound master plates were formatted in an 11 point concentration-response curve (CRC) format (1:3 dilutions) in 100% DMSO with a starting concentration of 10 mM using a BRAVO liquid handler (Agilent). Test compound CRCs were then transferred to daughter plates (240 nL) using the Echo acoustic plate reformatter (Labcyte, Sunnyvale, CA) and then diluted into assay buffer (40 μL) to a 2× stock using a Thermo Fisher Combi (Thermo Fisher Scientific, Waltham, MA).
Calcium flux was measured using the Functional Drug Screening System (FDSS) 6000 or 7000 (Hamamatsu Corporation, Tokyo, Japan) as an increase in the fluorescent static ratio. Compounds were applied to cells (20 μL, 2×) using the automated system of the FDSS at 2-4 seconds into the protocol and the data were collected at 1 Hz. At 144 seconds, 10 μL of an EC20 concentration of the muscarinic receptor agonist acetylcholine was added (5×), followed by the addition of 12 μL of an EC80 concentration of acetylcholine at the 230 second time point (5×). Agonist activity was analyzed as a concentration-dependent increase in calcium mobilization upon compound addition. Positive allosteric modulator activity was analyzed as a concentration-dependent increase in the EC20 acetylcholine response. Antagonist activity was analyzed as a concentration-dependent decrease in the EC80 acetylcholine response. Concentration-response curves were generated using a four-parameter logistical equation in XLFit curve fitting software (IDBS, Bridgewater, NJ) for Excel (Microsoft, Redmond, WA) or Prism (GraphPad Software, Inc., San Diego, CA).
Compounds were synthesized as described above. Activity (EC50 and Emax) was determined in the mAChR M4 cell-based functional assay as described above and the data are shown in Table 2. The compound number corresponds to the compound numbers used in Examples 1 to 11 and Tables 1.
(Calcium assays in cells follow changes in intracellular calcium, usually with a dye or a luminescent sensor.)

Broadly, the Emax is the greatest response seen or fitted, relative to the assay's reference. By EC50 is commonly meant the concentration giving half of the maximal effect. On to `Cc1cc2nccc(=O)n2nc1N1CC[C@@H](Oc2ccc3c(c2)OCCCO3)[C@H](F)C1` [Compound 55, 7-((3R,4R)-4-((3,4-dihydro-2H-benzo[b][1,4]dioxepin-7-yl)oxy)-3-fluoropiperidin-1-yl)-8-methyl-4H-pyrimido[1,2-b]pyridazin-4-one], for which the maximal response (Emax) at 30 µM came out at 80% and the concentration giving a half-maximal response (EC50) came out at 0.135 µM.
The matching figures for `Cc1cc2nccc(=O)n2nc1N1CCC(Oc2cc(F)c3c(c2)OCCO3)CC1` [Compound 135, 7-(4-((8-fluoro-2,3-dihydrobenzo[b][1,4]dioxin-6-yl)oxy)piperidin-1-yl)-8-methyl-4H-pyrimido[1,2-b]pyridazin-4-one]: 98% and 0.075 µM.
The matching figures for `[2H]C1([2H])Oc2ccc(OC3CCN(c4nn5c(=O)c(F)c(C)nc5c(C)c4C)CC3)cc2OC1([2H])[2H]` [Compound 16, 7-(4-((2,3-Dihydrobenzo[b][1,4]dioxin-6-yl-2,2,3,3-d4)oxy)piperidin-1-yl)-3-fluoro-2,8,9-trimethyl-4H-pyrimido[1,2-b]pyridazin-4-one]: 117% and 0.092 µM.
`[2H]C1([2H])Oc2ccc(OC3CCN(c4nn5c(=O)cc(COC)nc5cc4C)CC3)cc2OC1([2H])[2H]` [Compound 14, 7-(4-((2,3-Dihydrobenzo[b][1,4]dioxin-6-yl-2,2,3,3-d4)oxy)piperidin-1-yl)-2-(methoxymethyl)-8-methyl-4H-pyrimido[1,2-b]pyridazin-4-one]: the maximal response (Emax) at 30 µM is 101% and the EC50 was determined as 0.022 µM.
On the same counts, the results for `Cc1ccc(OC2CCN(c3nn4c(=O)ccnc4c(C)c3C)CC2)cc1` [Compound 77, 8,9-dimethyl-7-(4-(p-tolyloxy)piperidin-1-yl)-4H-pyrimido[1,2-b]pyridazin-4-one] are 101% and 0.091 µM.
In the case of `[2H]C1([2H])Oc2ccc(O[C@@H]3CCN(c4nn5c(=O)cc(COC)nc5c(C)c4C)C[C@@H]3F)cc2OC1([2H])[2H]` [Compound 121, 7-((3S,4R)-4-((2,3-dihydrobenzo[b][1,4]dioxin-6-yl-2,2,3,3-d4)oxy)-3-fluoropiperidin-1-yl)-2-(methoxymethyl)-8,9-dimethyl-4H-pyrimido[1,2-b]pyridazin-4-one], the Emax at 30 µM worked out at 111% and the EC50 amounted to 0.042 µM.
On the same counts, the results for `[2H]C1([2H])Oc2ccc(OC3CCN(c4nn5c(=O)cc(C(C)C)nc5c(C)c4C)CC3)cc2OC1([2H])[2H]` [Compound 99, 7-(4-((2,3-dihydrobenzo[b][1,4]dioxin-6-yl-2,2,3,3-d4)oxy)piperidin-1-yl)-2-isopropyl-8,9-dimethyl-4H-pyrimido[1,2-b]pyridazin-4-one] are 90% and 0.131 µM.
`Cc1cc2nc(C)c(F)c(=O)n2nc1N1CC[C@H](Oc2ccc3c(c2)OCCO3)[C@@H](F)C1` [Compound 37, 7-((3S,4S)-4-((2,3-dihydrobenzo[b][1,4]dioxin-6-yl)oxy)-3-fluoropiperidin-1-yl)-3-fluoro-2,8-dimethyl-4H-pyrimido[1,2-b]pyridazin-4-one]: the maximal response (Emax) at 30 µM was 105% and the concentration giving a half-maximal response (EC50) came out at 0.134 µM.
Consider `[2H]C1(Oc2ccc3c(c2)OC([2H])([2H])C([2H])([2H])O3)CCN(c2nn3c(=O)ccnc3c(C)c2C2CC2)CC1` [Compound 104, 8-cyclopropyl-7-(4-((2,3-dihydrobenzo[b][1,4]dioxin-6-yl-2,2,3,3-d4)oxy)piperidin-1-yl-4-d)-9-methyl-4H-pyrimido[1,2-b]pyridazin-4-one], for which the maximal effect (Emax) at 30 µM was found to be 87% and the EC50 was 1.41 µM.
The matching figures for `[2H]C1([2H])Oc2ccc(OC3CCN(c4nn5c(=O)ccnc5cc4C)CC3)cc2OC1([2H])[2H]` [Compound 1, 7-(4-((2,3-Dihydrobenzo[b][1,4]dioxin-6-yl-2,2,3,3-d4)oxy)piperidin-1-yl)-8-methyl-4H-pyrimido[1,2-b]pyridazin-4-one]: 91% and 0.13 µM.
On the same counts, the results for `[2H]C1([2H])Oc2ccc(O[C@H]3CCN(c4nn5c(=O)cc(COC)nc5c(C)c4C)[C@H](C)C3)cc2OC1([2H])[2H]` [Compound 133, 7-((2R,4S)-4-((2,3-dihydrobenzo[b][1,4]dioxin-6-yl-2,2,3,3-d4)oxy)-2-methylpiperidin-1-yl)-2-(methoxymethyl)-8,9-dimethyl-4H-pyrimido[1,2-b]pyridazin-4-one] are 105% and 0.096 µM.
Turning to `[2H]C1(Oc2ccc3c(c2)OCCCO3)CCN(c2nn3c(=O)cc(C(F)(F)F)nc3cc2C)CC1` [Compound 64, 7-(4-((3,4-dihydro-2H-benzo[b][1,4]dioxepin-7-yl)oxy)piperidin-1-yl-4-d)-8-methyl-2-(trifluoromethyl)-4H-pyrimido[1,2-b]pyridazin-4-one], the maximal response (Emax) at 30 µM was 104% and the concentration for a half-maximal effect (EC50) is 0.172 µM.
For `[2H]C1([2H])Oc2ccc(O[C@H]3CCN(c4nn5c(=O)cc(COC)nc5c(C)c4C)C[C@@H]3F)cc2OC1([2H])[2H]` [Compound 120, 7-((3S,4S)-4-((2,3-dihydrobenzo[b][1,4]dioxin-6-yl-2,2,3,3-d4)oxy)-3-fluoropiperidin-1-yl)-2-(methoxymethyl)-8,9-dimethyl-4H-pyrimido[1,2-b]pyridazin-4-one], the maximal effect (Emax) at 30 µM turned out to be 106% and the half-maximal effective concentration (EC50) worked out at 0.162 µM.
As for `COCc1ncc(OC2CCN(c3nn4c(=O)ccnc4cc3C)CC2)cc1C` [Compound 93, 7-(4-((6-(methoxymethyl)-5-methylpyridin-3-yl)oxy)piperidin-1-yl)-8-methyl-4H-pyrimido[1,2-b]pyridazin-4-one], the Emax at 30 µM was 70% and the half-maximal effective concentration (EC50) was over 10 µM.
Turning to `[2H]C1(Oc2ccc3c(c2)OCCO3)CCN(c2nn3c(=O)cc(C(F)(F)F)nc3cc2C)CC1` [Compound 49, 7-(4-((2,3-dihydrobenzo[b][1,4]dioxin-6-yl)oxy)piperidin-1-yl-4-d)-8-methyl-2-(trifluoromethyl)-4H-pyrimido[1,2-b]pyridazin-4-one], the Emax at 30 µM turned out to be 93% and the concentration for a half-maximal effect (EC50) was found to be 0.01 µM.
For `[2H]C1([2H])Oc2ccc(O[C@@H]3CCN(c4nn5c(=O)cc(COC)nc5c(C)c4C)C[C@H]3F)cc2OC1([2H])[2H]` [Compound 124, 7-((3R,4R)-4-((2,3-dihydrobenzo[b][1,4]dioxin-6-yl-2,2,3,3-d4)oxy)-3-fluoropiperidin-1-yl)-2-(methoxymethyl)-8,9-dimethyl-4H-pyrimido[1,2-b]pyridazin-4-one], the Emax at 30 µM was 109% and the EC50 came out at 0.101 µM.
On the same counts, the results for `COCc1cc(=O)n2nc(N3CCC(Oc4ccc5c(c4)OCCO5)CC3)c(C)c(C)c2n1` [Compound 13, 7-(4-((2,3-Dihydrobenzo[b][1,4]dioxin-6-yl)oxy)piperidin-1-yl)-2-(methoxymethyl)-8,9-dimethyl-4H-pyrimido[1,2-b]pyridazin-4-one] are 95% and 0.022 µM.
